Measured values published in article PMC6272646, “Understanding the Physicochemical Properties of Mitragynine, a Principal Alkaloid of Mitragyna speciosa, for Preclinical Evaluation” (Molecules, 2015).
Read-outs that look alike come from different tables or passages of the source.

Tests used:
[1] = Stability in buffers pH 4, 7, 9 (percentage recovered); assay type: physicochemical; settings: for percentage recovered: 20 µg/mL
Description: (§1) The HPLC system consisted of a Jasco delivery pump (Tokyo, Japan) equipped with autosampler connected to a Waters 2487 detector (Milford, MA, USA) coupled to Jasco Chromnav software (Version 2.0, Tokyo, Japan). Chromatographic separation was performed on a C8 Agilent Eclipse plus (4.6 mm i.d. × 250 mm, 5-μm particle size; Apple Valley, MN, USA). The HPLC-UV method was adapted from our previous study and revalidated for the present HPLC system. The method was employed to quantify mitragynine in partition coefficient, stability, dissolution and solubility studies.
For solubility studies, an excess of mitragynine was added to 1.0 mL each of distilled water or buffers at pH 4, 7 and 9. The test tubes were placed in a water bath shaker at 37 degrees Celsius at 100 cycles/min for 48 h until equilibrium. The samples were centrifuged at 3000 rpm for 5 min and supernatant was taken for quantification of mitragynine by HPLC-UV. […] A 0.1 mL aliquot was collected from each buffer system at intervals of 0, 0.5, 6.0 and 24.0 h for determination of mitragynine. Mitragynine concentrations were expressed as percentage recovered. All experiments were performed in triplicates.

[2] = rats, cited from earlier work
[3] = pKa determination, conventional UV spectrophotometer method; assay type: physicochemical; settings: aqueous buffer
Description: The instruments employed were UV spectrophotometer 8453 UV-Vis Diode Array (Agilent, Santa Clara, CA, USA), and Multiskan* GO Microplate Spectrophotometer (Thermo Scientific, Waltham, MA, USA). Data were captured using the Thermo Scientific SkanIt Software (Thermo Scientific, Version 3.2). Buffer Maker Software (version 1.0.1.55, BPP Marcin Borkowski, Marki, Poland,) was used for preparation of buffers with constant ionic strength for pKa determination. The pH-meter employed throughout the study was a PH 211 Hanna (Padova, Italy) equipped with a combined glass electrode.
pKa determination was carried out using conventional UV and microplate spectrophotometer methods. Acetic acid, tris base and sodium carbonate were used to prepare stable buffers in the pH range of 3 to 12. The buffers were prepared to give a final buffer molarity of 0.01 M. Either NaOH or HCl were used for pH adjustment of the various buffers, whose ionic strength was kept constant at 0.02 by addition of NaCl.
Five mL aliquots of buffer of various pH were transferred into separate tubes. To each tube, mitragynine stock solution in acetonitrile (4 mg/mL) was added to give a final drug concentration of 20 µg/mL. The percentage of organic content in final buffer preparation was kept below 1%. The prepared solutions were immediately scanned in the range of 200–400 nm.
Stock solution of mitragynine at 0.5 mg/mL was prepared in acetonitrile. Ten microliters of the stock solution was transferred into individual test tubes and diluted with 1.0 mL buffer of various pH to give a final concentration of 5 μg/mL. For absorbance spectrum analysis, 250 μL of the various pH buffer solutions spiked with drug were placed in a 96-well quartz UV-transparent microplate and immediately scanned in the range of 200–400 nm at a scanning rate of 200 nm/s in triplicates. The pKa was calculated with equation pKa = pH + log (d − dm/di − d), for basic compound, where di is the absorbance of the ionised species, d is the absorbance of the solution tested and dm is the absorbance of the neutral species.

opiate receptor = test system: opiate receptor; set-up: method as in ref 29 = [29]; 29. Watanabe K. Yano S. Horie S. Yamamoto L.T. Takayama H. Aimi N. Sakai S. Ponglux D. Tongroach P. Shan J. Pharmacological properties of some structurally related indole alkaloids contained in the As; settings: cited from earlier work
mice = test system: mice; set-up: method as in Macko et al, 15; settings: mitragynine salt solution, ref Macko et al, 15; cited from earlier work
rats = test system: rats; set-up: method as in Macko et al, 15; settings: mitragynine salt solution, ref Macko et al, 15; cited from earlier work
[4] = n-octanol/water partition coefficient (logP, logD); assay type: physicochemical; settings: for logD: read-out: Calculated n-octanol/water partition coefficient (logD)
Description: as §1
Lipophilicity of mitragynine was determined by n-octanol/water partition coefficient (P) using the method described by Low et al.. The distribution coefficient (log D) was determined in a similar manner to logP but instead of using water, buffers with a specific pH (4, 7, and 9) were used.

SMILES: CC[C@@H]1CN2CCc3c([nH]c4cccc(OC)c34)[C@@H]2C[C@@H]1/C(=C\OC)C(=O)OC [mitragynine]
- stability in buffer (in words) ([1]; pH 4): appears to degrade over time
- percentage recovered ([1]; pH 4 buffer, 0.5 h): 100.6 ± 0.3%
- percentage recovered ([1]; pH 4 buffer, 6 h): 91.8 ± 1.0%
- percentage recovered ([1]; pH 4 buffer, 24 h): 88.8 ± 1.4%
- stability in buffer (in words) ([1]; pH 7 and 9, 24 h): stable
- percentage recovered ([1]; pH 7 buffer, 0.5 h): 99.2 ± 0.4%
- percentage recovered ([1]; pH 7 buffer, 6 h): 96.1 ± 1.9%
- percentage recovered ([1]; pH 7 buffer, 24 h): 101.9 ± 0.9%
- percentage recovered ([1]; pH 9 buffer, 0.5 h): 101.3 ± 2.6%
- percentage recovered ([1]; pH 9 buffer, 6 h): 97.8 ± 0.3%
- percentage recovered ([1]; pH 9 buffer, 24 h): 95.5 ± 2.5%
- Cmax ([2]; oral dose 20–50 mg/kg): 400 to 2300 ng/mL
- half-life ([2]; oral dose 20–50 mg/kg): 3.8 to 9.4 h
- absolute oral bioavailability [2]: ≈ 3%
- pKa ([3]; UV Spectrophotometer, Day 1, read-out: pKa, interday repeatability): 8.18
- pKa ([3]; UV Spectrophotometer, Day 2, read-out: pKa, interday repeatability): 8.11
- pKa ([3]; UV Spectrophotometer, Day 3, read-out: pKa, interday repeatability): 8.15
- pKa ([3]; pH 7.52, target pH 7.6, actual pH 7.52, 20 µg/mL, 248 nm, read-out: pKa): 8.02
- pKa ([3]; pH 7.6, conventional UV method, mean over pH 7.6-9.0, read-out: pKa (Mean ± SD)): 8.11 ± 0.11
- pKa ([3]; pH 7.78, target pH 7.8, actual pH 7.78, 20 µg/mL, 248 nm, read-out: pKa): 8.16
- pKa ([3]; pH 7.96, target pH 8.0, actual pH 7.96, 20 µg/mL, 248 nm, read-out: pKa): 8.17
- pKa ([3]; pH 8.13, target pH 8.2, actual pH 8.13, 20 µg/mL, 248 nm, read-out: pKa): 8.18
- pKa ([3]; pH 8.34, target pH 8.4, actual pH 8.34, 20 µg/mL, 248 nm, read-out: pKa): 8.13
- pKa ([3]; pH 8.45, target pH 8.6, actual pH 8.45, 20 µg/mL, 248 nm, read-out: pKa): 8.05
- pKa ([3]; pH 8.71, target pH 8.8, actual pH 8.71, 20 µg/mL, 248 nm, read-out: pKa): 8.27
- pKa ([3]; pH 8.92, target pH 9.0, actual pH 8.92, 20 µg/mL, 248 nm, read-out: pKa): 7.93
- antinociceptive effect, potency compared with M. speciosa crude extract (opiate receptor): less potent than the M. speciosa crude extract
- dose up to which no adverse reactions were reported (mice): 920 mg/kg
- dose up to which no adverse reactions were reported (rats): 806 mg/kg
- logD ([4]; n-octanol/buffer pH 4, pH 4): 0.78
- logD ([4]; n-octanol/buffer pH 7, pH 7): 1.73
- logD ([4]; n-octanol/buffer pH 9, pH 9): 1.56
- logP ([4]; n-octanol/water, read-out: Calculated n-octanol/water partition coefficient (logP)): 1.7
- Mitragynine Content in buffer layer ([4]; octanol / buffer pH 4): 2.98 µg/mL
- Mitragynine Content in octanol layer ([4]; octanol / buffer pH 4): 17.97 µg/mL
- Mitragynine Content in buffer layer ([4]; octanol / buffer pH 7): 0.38 µg/mL
- Mitragynine Content in octanol layer ([4]; octanol / buffer pH 7): 20.54 µg/mL
- Mitragynine Content in buffer layer ([4]; octanol / buffer pH 9): 0.51 µg/mL
- Mitragynine Content in octanol layer ([4]; octanol / buffer pH 9): 18.45 µg/mL
- Mitragynine Content in aqueous layer ([4]; octanol / water): 0.42 µg/mL
- Mitragynine Content in octanol layer ([4]; octanol / water): 20.74 µg/mL
